In patent US8785418B2, “Lyophilization cakes of proteasome inhibitors” (Cephalon, Inc., priority 2009, dated 2014):

Legend:
[1] = Hydrolysis of Compound 10 in aqueous solution; type: physicochemical
Protocol: Mannitol (39.2 mg) and Kleptose® HP (hydroxypropyl-β-cyclodextrin; 49 mg) are dissolved in sterile water for injection (599 mg) at room temperature. Compound 10 (1.167 mg) is dispersed in tert-butanol (312 mg) by magnetic stirring protected from light at room temperature during 10 minutes. A few mL of the Mannitol/Kleptose® solution is poured into the Compound 10 dispersion in order to solubilize the Compound 10. After forming a solution, the remaining Mannitol/Kleptose® solution is added. The solution is stirred for a few minutes while protected from light. In Formulation 7, the pH is adjusted with phosphoric acid (2M) down to pH 4.0±0.2. In Formulation 8, the pH is about 8 and is not adjusted. The pre-lyophilization solution is filtered through a sterile disposable PVDF filter of 0.22 μm (Stericup Millipore®) to form a clear solution. 4 mL of the filtered pre-lyophilization solution is transferred into a 10 mL bottle and then freeze-dried.
Analysis of the pre-lyophilization solutions for Formulations 7 and 8 were performed at T0 and after 48 hours storage at 25° C. Compound 1 was analyzed because Compound 10 is known to convert to Compound 1 in aqueous solution.

[2] = system: normal human epithelial cells, bone marrow progenitors, and bone marrow-derived stromal cells; settings: cited from earlier work
[3] = system: RANKL-induced osteoclastoenesis; settings: in vitro; cited from earlier work
[4] = system: angiogenesis; settings: in vitro; cited from earlier work
[5] = Stability of Compound 1 drug substance; type: physicochemical
Description: Piva, R. R., et al., Blood, 1 Mar. 2008, vol 111, No. 5, p 2765-2775. […] Id.
Compound 1 is currently undergoing clinical trials.

Compound	Hydrolysis in aqueous solution ([1]; aqueous solution, converts to Compound 1)	Compound 10 remaining in obtained lyophilized cake ([1]; lyophilized cake of Formulations 7 and 8 (4 mL fill)) [mg]	Cytotoxicity profile [2]	RANKL-induced osteoclastoenesis [3]	Anti-angiogenic activity [4]	Stability of the compound ([5]; exposure to air and/or light, some batches degrade at temperatures as low as 5° C.)	Stability in solution ([5]; solution)
6-(2S,3R)-N-[(1R)-1-(1,3,6,2-dioxazaborocan-2-yl)-3-methylbutyl}-3-hydroxy-2-{(6-phenylpyridin-2-yl)formamido]butanamide [Compound 10]	readily hydrolyzed	< 0.01	–	–	–	–	–
CC(C)C[C@H](NC(=O)[C@@H](NC(=O)c1cccc(-c2ccccc2)n1)[C@@H](C)O)B(O)O [Compound 1, [(1R)-1-[[(2S,3R)-3-Hydroxy-2-[[(6-phenylpyridin-2-yl)carbonyl]amino]-1-oxobutyl]amino]-3-methylbutyl]boronic acid]	–	–	favorable cytotoxicity profile	represses	strong anti-angiogenic activity	unstable and subject to degradation upon exposure to air and/or light	unstable in solution
